Data from patent US12139520B2 (priority 2020, dated 2024).
Bridge positions count the residues as written; N and C are the ends. Square brackets hold non-standard residues; d marks the D form. Peptide text beside a SMILES is read from it. Hyp = O=C(O)[C@@H]1C[C@@H](O)CN1

How the values were obtained:
[1] = Physical stability of peptide analogues (Thioflavin T fibrillation); format: physicochemical; conditions: maximum ThT signal normalized between hAMY maximum and buffer background; 40° C., shaking, four days; pH 7 per table title
Method in brief: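 Peptides in 50 mM sodium acetate pH 4 or 50 mM sodium phosphate pH 7 were preincubated 1 h, mixed with 4 μM ThT, held at 40° C with 700 rpm shaking before each read. Fluorescence (ex 450/em 480 nm) every 10 min for four days; LOESS-smoothed maximum signal normalized in percent between hAMY and buffer.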

hAMY3 receptor = target: T1, hAMY3 receptor (Homo sapiens, UniProt O60896+P30988); test: cAMP assay for in vitro receptor activation, hAMY3-R; format: cell-based; conditions: cAMP assay, hAMY3 receptor; read-out: hAMY3R EC50
T1 sequence (P30988 25-474): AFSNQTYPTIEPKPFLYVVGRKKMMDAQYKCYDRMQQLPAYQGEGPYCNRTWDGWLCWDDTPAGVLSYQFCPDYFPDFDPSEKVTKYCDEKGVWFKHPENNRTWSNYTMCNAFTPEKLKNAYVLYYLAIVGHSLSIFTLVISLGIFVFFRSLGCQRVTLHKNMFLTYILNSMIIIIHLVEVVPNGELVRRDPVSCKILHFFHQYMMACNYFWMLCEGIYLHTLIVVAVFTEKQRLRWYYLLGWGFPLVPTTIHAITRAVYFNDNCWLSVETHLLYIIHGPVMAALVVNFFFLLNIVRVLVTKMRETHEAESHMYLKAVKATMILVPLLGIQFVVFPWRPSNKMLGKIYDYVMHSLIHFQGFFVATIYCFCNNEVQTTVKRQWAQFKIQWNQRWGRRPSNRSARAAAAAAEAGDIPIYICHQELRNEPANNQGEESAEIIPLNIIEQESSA
T1 sequence (O60896 24-148 partner): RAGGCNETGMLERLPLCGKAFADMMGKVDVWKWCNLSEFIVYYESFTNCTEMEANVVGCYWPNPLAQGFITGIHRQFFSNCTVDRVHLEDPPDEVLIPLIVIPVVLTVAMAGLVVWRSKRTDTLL
Method in brief: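 Receptor activation was measured as cAMP accumulation in a monoclonal cell line stably overexpressing hAMY3. Stimulation with graded doses lasted 30 min at room temperature in the presence of 0.5 mM IBMX, with human amylin as positive control.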

Row | Max ThT signal (%) [1] [%] | EC50 (hAMY3 receptor) [nM] | Compound
1 | 24.300 | 0.054 | CC[C@H](C)[C@H](NC(=O)[C@H](CCC(N)=O)NC(=O)[C@H](Cc1c[nH]cn1)NC(=O)[C@H](C)NC(=O)[C@H](CC(C)C)NC(=O)[C@H](CCCNC(=N)N)NC(=O)[C@H](CCC(N)=O)NC(=O)[C@@H](NC(=O)[C@@H](NC(=O)[C@@H]1CSSC[C@H](NC(=O)CN)C(=O)N[C@@H](CCCNC(=N)N)C(=O)N[C@@H](Cc2ccccc2)C(=O)NCC(=O)N[C@@H]([C@@H](C)O)C(=O)N1)[C@@H](C)O)C(C)C)C(=O)N[C@@H](Cc1ccc(O)cc1)C(=O)N[C@@H](CCC(N)=O)C(=O)N[C@@H](Cc1ccccc1)C(=O)N[C@H](C(=O)N[C@@H](CC(=O)O)C(=O)N[C@@H](CCCCN)C(=O)N[C@@H](CC(=O)O)C(=O)N[C@@H](CCCCN)C(=O)N[C@@H](CC(=O)O)C(=O)N[C@@H](CC(N)=O)C(=O)N[C@H](C(=O)N[C@@H](C)C(=O)N1CCC[C@H]1C(=O)N[C@@H](CCCNC(=N)N)C(=O)N[C@H](C(=O)N[C@@H](CCCCN)C(=O)N[C@H](C(=O)N[C@@H](CO)C(=O)N1CCC[C@H]1C(=O)N[C@@H](CCC(N)=O)C(=O)NCC(=O)N[C@@H](Cc1ccc(O)cc1)C(N)=O)[C@@H](C)CC)[C@@H](C)O)C(C)C)[C@@H](C)O [compound 164] (H-GCRFGTCTVQRLAHQIYQFTDKDKDNVAPRTKISPQGY-NH2; disulfide 2-7)
2 | 4.800 | 0.054 | CC[C@H](C)[C@H](NC(=O)[C@H](CC(N)=O)NC(=O)[C@H](CO)NC(=O)[C@H](CCCNC(=N)N)NC(=O)[C@@H]1CCCN1C(=O)[C@H](C)NC(=O)[C@@H](NC(=O)[C@H](CC(N)=O)NC(=O)[C@H](CC(=O)O)NC(=O)[C@H](CCCCN)NC(=O)[C@H](CC(=O)O)NC(=O)[C@H](CCCCN)NC(=O)[C@H](CC(=O)O)NC(=O)[C@@H](NC(=O)[C@H](Cc1ccccc1)NC(=O)[C@H](CCC(N)=O)NC(=O)[C@H](Cc1ccc(O)cc1)NC(=O)[C@@H](NC(=O)[C@H](CCC(N)=O)NC(=O)[C@H](Cc1c[nH]cn1)NC(=O)[C@H](C)NC(=O)[C@H](CC(C)C)NC(=O)[C@H](CCCNC(=N)N)NC(=O)[C@H](CCC(N)=O)NC(=O)[C@@H](NC(=O)[C@@H](NC(=O)[C@@H]1CSSC[C@H](NC(=O)CN)C(=O)N[C@@H](CCCNC(=N)N)C(=O)N[C@@H]([C@@H](C)O)C(=O)NCC(=O)N[C@@H]([C@@H](C)O)C(=O)N1)[C@@H](C)O)C(C)C)[C@@H](C)CC)[C@@H](C)O)C(C)C)C(=O)NCC(=O)N1CCC[C@H]1C(=O)N[C@@H](CCC(N)=O)C(=O)NCC(=O)N1C[C@H](O)C[C@H]1C(N)=O [compound 165] (H-GCRTGTCTVQRLAHQIYQFTDKDKDNVAPRSNIGPQG[Hyp]-NH2; disulfide 2-7; N-terminus assumed)
3 | 2.000 | 0.056 | CC[C@H](C)[C@H](NC(=O)[C@H](CCC(N)=O)NC(=O)[C@H](Cc1c[nH]cn1)NC(=O)[C@H](C)NC(=O)[C@H](CC(C)C)NC(=O)[C@H](CCCNC(=N)N)NC(=O)[C@H](CCC(N)=O)NC(=O)[C@@H](NC(=O)[C@@H](NC(=O)[C@@H]1CSSC[C@H](NC(=O)CN)C(=O)N[C@@H](CCCNC(=N)N)C(=O)N[C@@H]([C@@H](C)O)C(=O)NCC(=O)N[C@@H]([C@@H](C)O)C(=O)N1)[C@@H](C)O)C(C)C)C(=O)N[C@@H](Cc1ccc(O)cc1)C(=O)N[C@@H](CCC(N)=O)C(=O)N[C@@H](Cc1ccccc1)C(=O)N[C@H](C(=O)N[C@@H](CC(=O)O)C(=O)N[C@@H](CCCCN)C(=O)N[C@@H](CC(=O)O)C(=O)N[C@@H](CCCCN)C(=O)N[C@@H](CC(=O)O)C(=O)N[C@@H](CC(N)=O)C(=O)N[C@H](C(=O)N[C@@H](C)C(=O)N1CCC[C@H]1C(=O)N[C@@H](CCCNC(=N)N)C(=O)N[C@@H](CO)C(=O)N[C@@H](CC(N)=O)C(=O)N[C@H](C(=O)N[C@@H](CO)C(=O)N1CCC[C@H]1C(=O)N[C@@H](CC(N)=O)C(=O)NCC(=O)N1C[C@H](O)C[C@H]1C(N)=O)C(C)C)C(C)C)[C@@H](C)O [compound 166] (H-GCRTGTCTVQRLAHQIYQFTDKDKDNVAPRSNVSPNG[Hyp]-NH2; disulfide 2-7; N-terminus assumed)
4 | 6.600 | 0.056 | CC[C@H](C)[C@H](NC(=O)[C@H](CCC(N)=O)NC(=O)[C@H](Cc1c[nH]cn1)NC(=O)[C@H](C)NC(=O)[C@H](CC(C)C)NC(=O)[C@H](CCCNC(=N)N)NC(=O)[C@H](CCC(N)=O)NC(=O)[C@@H](NC(=O)[C@@H](NC(=O)[C@@H]1CSSC[C@H](NC(=O)CN)C(=O)N[C@@H](CCCNC(=N)N)C(=O)N[C@@H](Cc2ccccc2)C(=O)NCC(=O)N[C@@H]([C@@H](C)O)C(=O)N1)[C@@H](C)O)C(C)C)C(=O)N[C@@H](Cc1ccc(O)cc1)C(=O)N[C@@H](CCC(N)=O)C(=O)N[C@@H](Cc1ccccc1)C(=O)N[C@H](C(=O)N[C@@H](CC(=O)O)C(=O)N[C@@H](CCCCN)C(=O)N[C@@H](CC(=O)O)C(=O)N[C@@H](CCCCN)C(=O)N[C@@H](CC(=O)O)C(=O)N[C@@H](CC(N)=O)C(=O)N[C@H](C(=O)N[C@@H](C)C(=O)N1CCC[C@H]1C(=O)N[C@@H](CCCNC(=N)N)C(=O)N[C@@H](CO)C(=O)N[C@@H](CCCCN)C(=O)N[C@H](C(=O)N[C@@H](CO)C(=O)N1CCC[C@H]1C(=O)N[C@@H](CCC(N)=O)C(=O)NCC(=O)N1C[C@H](O)C[C@H]1C(N)=O)C(C)C)C(C)C)[C@@H](C)O [compound 167] (H-GCRFGTCTVQRLAHQIYQFTDKDKDNVAPRSKVSPQG[Hyp]-NH2; disulfide 2-7; N-terminus assumed)
5 | 1.800 | 0.064 | CC[C@H](C)[C@H](NC(=O)[C@H](CCC(N)=O)NC(=O)[C@H](Cc1c[nH]cn1)NC(=O)[C@H](C)NC(=O)[C@H](CC(C)C)NC(=O)[C@H](CCCNC(=N)N)NC(=O)[C@H](CCC(N)=O)NC(=O)[C@@H](NC(=O)[C@@H](NC(=O)[C@@H]1CSSC[C@H](NC(=O)CN)C(=O)N[C@@H](CCCNC(=N)N)C(=O)N[C@@H]([C@@H](C)O)C(=O)NCC(=O)N[C@@H]([C@@H](C)O)C(=O)N1)[C@@H](C)O)C(C)C)C(=O)N[C@@H](Cc1ccc(O)cc1)C(=O)N[C@@H](CCC(N)=O)C(=O)N[C@@H](Cc1ccccc1)C(=O)N[C@H](C(=O)N[C@@H](CC(=O)O)C(=O)N[C@@H](CCCCN)C(=O)N[C@@H](CC(=O)O)C(=O)N[C@@H](CCCCN)C(=O)N[C@@H](CC(=O)O)C(=O)N[C@@H](CC(N)=O)C(=O)N[C@H](C(=O)N[C@@H](C)C(=O)N1CCC[C@H]1C(=O)N[C@@H](CCCNC(=N)N)C(=O)N[C@H](C(=O)N[C@@H](CC(N)=O)C(=O)N[C@H](C(=O)N[C@@H](CO)C(=O)N1CCC[C@H]1C(=O)N[C@@H](CC(N)=O)C(=O)NCC(=O)N1C[C@H](O)C[C@H]1C(N)=O)[C@@H](C)CC)[C@@H](C)O)C(C)C)[C@@H](C)O [compound 170] (H-GCRTGTCTVQRLAHQIYQFTDKDKDNVAPRTNISPNG[Hyp]-NH2; disulfide 2-7)
